Assay results published in patent publication US6887878B2, “KMST isoeugenol derivatives and pharmaceutical activity” (Ing-Jun Chen, priority 2003, dated 2005).
Read-outs that look alike come from different tables or passages of the source.

Legend:
5-HT1B = molecular target: T1, 5-HT1B (Rattus norvegicus, UniProt P28564); assay: [3H]GR125743 receptor binding in rat cortex; design: species or system Wistar rat
T1 construct: from tissue; host or cells: Wistar rat cortex membranes
Description: (§1) The homogenate was pressure filtered through muslin. Filtrate was centrifuged at 1000 g for 10 min. […] Protein content was determined by Bradford's method.

[1] = system: phenylephrine-induced contractions in rat thoracic aorta; assay: LPS-induced vascular hyporeactivity: phenylephrine-induced contractions in rat thoracic aorta; assay type: in vivo, Wistar rat
[2] = LPS-induced blood glucose changes; assay type: in vivo, rat; conditions: for LPS-induced early hyperglycemia: at 1 and 3 hours; for LPS-induced hypoglycemia: at 5 hours
Description: (§2) In brief, Wistar rats weighing 250-300 g were anesthetized with pentobarbital sodium (50 mg kg^−1, i.p.). Following tracheal cannulation, systemic arterial BP and HR were recorded from the femoral artery by a pressure transducer (model P10EZ; Spectramed, Oxnard, Calif., U.S.A.) connected to a recorder (GOULD, Valley View, Ohio, Model P50). Body temperature was maintained at 37° C. by an electric heating pad. A femoral vein was cannulated for intravenous injection of drugs and LPS (10 mg kg^−1).
(§3) Blood was collected from venous cannula, injected into ice-cold heparinized Eppendorf tubes and centrifuged at 1500 rpm for 10 min at 4° C. Plasma supernatant was stored at −70° C. until analyzed. Solid phase enzyme immunoassay that specifically detects murine IL-1β, IL-6, IFN-γ and TNF-α was used with a detection limit of >10 pg/ml (Endogen, U.S.A). Pre-treatment with KMST and other agents was performed 15 minutes before intravenous injection of LPS. Blood was collected from venous cannula. Blood glucose was measured with a glucose test strip (Glucotide, Bayer, U.S.A) at 1, 3 and 5 hours.

[3] = system: lipid peroxidation in rat brain homogenate; assay: lipid peroxidation initiated by Fe2+-ascorbic acid in rat brain homogenates (TBARS); assay type: biochemical; conditions: rat brain homogenates; read-out: IC50 inhibiting lipid peroxidation initiated by Fe2+-ascorbic acid
Description: Rat brain homogenate was made in 0.9% saline containing 10 mg tissue/ml. The rates of membrane lipid peroxidation were measured by the formation of thiobarbituric acid (TBA)-reactive substance (TBARS). Rat brain homogenates (1 ml) were incubated at 37° C. for 5 min with 10 μl of test compound or vehicle. […] After 30 min of incubation, the reaction was stopped by adding 0.1 ml of 0.2% BHT. TBA reagent was then added and the mixture was heated for 30 min in a boiling water bath. […] The amount of TBARS was quantified using the linear regression obtained from malondialdehyde (MDA) standards.

[4] = system: IL-1β, IL-6, IFN-γ and TNF-α; assay: LPS-induced plasma cytokine immunoreactivity; assay type: in vivo, rat; conditions: 1 hour after LPS administration
Description: as §2, §3

α2 receptors = assay: [3H]yohimbine receptor binding in rat cortex; design: species or system Wistar rat
Description: as §1

α1 receptors = assay: [3H]prazosin receptor binding in rat cortex; design: species or system Wistar rat
Description: as §1

5-HT1A = molecular target: T2, 5-HT1A (Rattus norvegicus, UniProt P19327); assay: [3H]WAY100635 receptor binding; conditions: read-out: Ki 5-HT1A; [3H]WAY100635
T2 sequence (P19327 1-422): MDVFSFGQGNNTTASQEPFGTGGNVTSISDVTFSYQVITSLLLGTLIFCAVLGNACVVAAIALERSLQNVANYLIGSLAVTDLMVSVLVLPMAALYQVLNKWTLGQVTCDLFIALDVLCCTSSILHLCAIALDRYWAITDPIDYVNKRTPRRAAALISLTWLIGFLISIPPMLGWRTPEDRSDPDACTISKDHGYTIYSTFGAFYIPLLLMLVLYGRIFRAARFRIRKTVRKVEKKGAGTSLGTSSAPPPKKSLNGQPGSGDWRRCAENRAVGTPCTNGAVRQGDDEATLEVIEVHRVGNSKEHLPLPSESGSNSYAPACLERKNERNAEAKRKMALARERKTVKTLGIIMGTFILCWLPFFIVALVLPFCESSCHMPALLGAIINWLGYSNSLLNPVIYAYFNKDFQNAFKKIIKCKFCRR

M2 = M2 receptor binding; design: species or system guinea pig
[5] = system: epinephrine-induced human platelet aggregation; assay: epinephrine-induced human platelet aggregation; assay type: cell-based; conditions: epinephrine 5 μM, PRP
Description: (§4) Venous blood from human volunteer donors was collected in 10 ml Monovette containing 1 ml citrate solution (0.106M trisodium citrate; Sarstedt, Nümbrecht, Germany) and centrifuged (400 g, 10 min, 20° C.). […] After centrifugation (10 min, 2000 g, 20° C.), the platelet pellet was resuspended in wishing buffer (113 mM NaCl, 4 mM Na2HPO4, 24 mM NaH2PO4, 4 mM KCl, 0.2 mM EGTA(Ethylene glycol-bis-(2-aminoethyl ether) N,N,N′-tetraacetic acid), 0.1% (wt/vol) glucose, pH 6.0) and recentrifuged (10 min, 2000 g, 20° C.). The washed platelets were resuspended in incubation buffer (134 mM NaCl, 12 mM NaHCO3, 2.9 mM KCl, 0.34 mM NaH2PO4, 5 mM HEPES (N-(2-hydroxyethyl) piperazine-N′-(2-ethanesulfonic acid)), 5 mM glucose, pH7.4), cells were counted in a Sysmex hematology analyzer (Sysmex, CDA-500, Japan) and adjusted to a final concentration of 2×10^8 platelets/ml.
(§5) The aggregation of the platelets in platelet-rich plasma (PRP) was measured as a change in light absorbance by a Payton dual-channel aggregometer (NBS, Hema tracer, Japan). PRP (240 μL) was stirred (700 rpm) at 37° C. for 1 min, and 5 μL epinephrine (final concentration 5 μM), serotonin (final concentration 5 μM) was added. After which the rate of primary aggregation (1/min) and maximum aggregation (%) at 5 min were recorded. To study the effects of compounds on epinephrine or serotonin-induced aggregation, PRP was incubated with 5 μL of compounds at various concentrations for 1 min before epinephrine or serotonin was added. IC50 values given were calculated from the secondary aggregation data.

β2 receptors = molecular target: T3, β2 receptors (Rattus norvegicus, UniProt P10608); assay: [3H]CGP-12177 receptor binding in rat lung; design: species or system Wistar rat; conditions: [3H]CGP-12177, rat lung
T3 construct: from tissue; host or cells: Wistar rat lung membranes
Description: as §1

β1 receptors = molecular target: T4, β1 receptors (Rattus norvegicus, UniProt P18090); assay: [3H]CGP-12177 receptor binding in rat ventricle; design: species or system Wistar rat; conditions: [3H]CGP-12177, rat ventricle
T4 construct: from tissue; host or cells: Wistar rat heart (ventricle) membranes
Description: as §1

[6] = system: serotonin-induced human platelet aggregation; assay: serotonin-induced human platelet aggregation; assay type: cell-based; conditions: serotonin 5 μM, PRP; read-out: IC50 serotonin-induced human platelet aggregation
Description: as §4, §5

5-HT2A receptor = 5-HT2A receptor (Rattus norvegicus, UniProt P14842); assay: [3H]ketanserin receptor binding in rat cortex; design: from tissue; host or cells: Wistar rat cortex membranes; species or system Wistar rat
Description: as §1

[7] = agent given after LPS injection (1 hr), pD2 to phenylephrine
[8] = agent given before LPS injection (30 min), pD2 to phenylephrine
[9] = after LPS injection (1 hr), 15 mg kg-1
[10] = before LPS injection (30 min), 1 mg kg-1
[11] = before LPS injection (30 min), 15 mg kg-1
[12] = [3H]GR125743 (5-HT1B/1D), rat cortex, read-out: Ki 5-HT1B

T1 sequence (P28564 whole entry): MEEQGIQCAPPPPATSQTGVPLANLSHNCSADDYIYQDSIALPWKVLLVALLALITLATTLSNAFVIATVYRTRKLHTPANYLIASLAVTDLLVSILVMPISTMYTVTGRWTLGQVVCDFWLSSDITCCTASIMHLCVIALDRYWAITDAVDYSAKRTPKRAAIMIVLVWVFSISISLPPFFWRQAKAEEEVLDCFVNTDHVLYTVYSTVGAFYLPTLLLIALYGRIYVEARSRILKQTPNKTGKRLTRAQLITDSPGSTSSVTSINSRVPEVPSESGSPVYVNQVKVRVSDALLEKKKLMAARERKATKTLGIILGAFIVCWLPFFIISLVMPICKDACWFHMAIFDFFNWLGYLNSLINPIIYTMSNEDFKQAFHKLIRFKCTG
T3 sequence (P10608 whole entry): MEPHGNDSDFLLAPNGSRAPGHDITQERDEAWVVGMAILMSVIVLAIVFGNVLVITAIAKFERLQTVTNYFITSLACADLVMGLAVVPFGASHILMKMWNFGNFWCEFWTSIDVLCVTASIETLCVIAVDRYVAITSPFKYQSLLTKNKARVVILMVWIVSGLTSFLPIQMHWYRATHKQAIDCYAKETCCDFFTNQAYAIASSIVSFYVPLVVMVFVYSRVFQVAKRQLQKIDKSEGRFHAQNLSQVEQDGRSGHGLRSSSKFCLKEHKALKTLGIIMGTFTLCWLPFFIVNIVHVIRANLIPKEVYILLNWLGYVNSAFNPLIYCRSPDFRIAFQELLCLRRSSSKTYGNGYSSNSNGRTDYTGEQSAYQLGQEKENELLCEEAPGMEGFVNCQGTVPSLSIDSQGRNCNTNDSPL
T4 sequence (P18090 whole entry): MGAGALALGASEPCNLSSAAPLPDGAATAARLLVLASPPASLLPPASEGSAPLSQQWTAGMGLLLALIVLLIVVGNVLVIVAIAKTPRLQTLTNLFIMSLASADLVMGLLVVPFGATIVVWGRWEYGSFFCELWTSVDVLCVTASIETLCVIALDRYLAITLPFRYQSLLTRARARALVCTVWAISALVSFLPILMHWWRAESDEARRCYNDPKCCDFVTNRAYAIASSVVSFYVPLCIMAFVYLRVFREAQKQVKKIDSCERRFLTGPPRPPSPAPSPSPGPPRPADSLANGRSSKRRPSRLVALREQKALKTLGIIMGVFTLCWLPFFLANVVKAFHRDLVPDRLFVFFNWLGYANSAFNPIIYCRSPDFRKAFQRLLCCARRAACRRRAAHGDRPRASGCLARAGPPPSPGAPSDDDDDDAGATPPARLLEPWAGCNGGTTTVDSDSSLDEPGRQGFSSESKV
Sequence of 5-HT2A receptor (P14842 whole entry): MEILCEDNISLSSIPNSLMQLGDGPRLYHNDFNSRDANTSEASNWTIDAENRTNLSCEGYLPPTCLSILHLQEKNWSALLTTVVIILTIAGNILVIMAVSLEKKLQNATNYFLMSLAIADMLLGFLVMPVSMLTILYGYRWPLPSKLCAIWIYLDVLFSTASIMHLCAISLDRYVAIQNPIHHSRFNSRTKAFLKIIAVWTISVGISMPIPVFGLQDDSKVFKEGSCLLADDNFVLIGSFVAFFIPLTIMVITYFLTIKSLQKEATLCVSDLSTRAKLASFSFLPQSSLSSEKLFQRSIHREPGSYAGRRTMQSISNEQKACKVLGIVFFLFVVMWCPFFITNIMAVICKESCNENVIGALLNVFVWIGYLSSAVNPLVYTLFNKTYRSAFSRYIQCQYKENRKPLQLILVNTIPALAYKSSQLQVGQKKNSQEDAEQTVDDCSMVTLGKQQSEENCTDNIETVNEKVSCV

## CCCCCCCCCOc1ccc2[nH]cc(CCN)c2c1 [5-nonyloxytryptamine, reference compound]
5-HT1B
  Ki: 5.81 nM

## Cl.N=C(N)NN [Aminoguanidine, aminoguanidine HCl]
[1]; [7]
  pD2 at 3rd hr: 6.48 ± 0.13
  pD2 at 5th hr: 5.81 ± 0.14
[1]; [8]
  pD2 at 3rd hr: 6.81 ± 0.17
  pD2 at 5th hr: 5.44 ± 0.31
[2]
  LPS-induced early hyperglycemia: inhibited
  LPS-induced hypoglycemia: did not affect
[3]
  IC50: > 100000 nM

## O=C1O[C@H]([C@@H](O)CO)C(O)=C1O [Ascorbic acid]
[1]; [9]
  pD2 at 3rd hr: 6.64 ± 0.16
  pD2 at 5th hr: 5.21 ± 0.12
[1]; [10]
  pD2 at 3rd hr: 7.07 ± 0.25
  pD2 at 5th hr: 5.04 ± 0.28
[1]; [11]
  pD2 at 3rd hr: 6.71 ± 0.13
  pD2 at 5th hr: 5.11 ± 0.22
[2]
  LPS-induced early hyperglycemia: inhibited
  LPS-induced hypoglycemia: did not affect
[3]
  IC50: 7150 ± 140 nM
[4]
  LPS-induced production of IFN-γ: insignificantly enhanced

## CC(C)NCC(O)COc1ccc(CC(N)=O)cc1 (stereo not drawn) [Atenolol]
α2 receptors
  Ki: > 10000 nM
α1 receptors
  Ki: > 10000 nM

## CC=Cc1ccc(OCC(O)CN2CCN(c3ccc(Cl)cc3)CC2)c(OC)c1 (stereo not drawn) [Compound 2]
5-HT1A
  Ki: > 10000 nM
α2 receptors
  Ki: 1970 nM
M2
  Ki: > 10000 nM
[5]
  IC50: 3900 nM
β2 receptors
  Ki: > 10000 nM
β1 receptors
  Ki: 106 nM
[6]
  IC50: 4.73 nM
α1 receptors
  Ki: 47 nM
5-HT2A receptor
  Ki: 2.99 nM
5-HT1B; [12]
  Ki: 1090 nM

## CC=Cc1ccc(OCCCN2CCN(c3cccc(Cl)c3)CC2)c(OC)c1 [Compound 3]
5-HT1A
  Ki: > 10000 nM
α2 receptors
  Ki: 9290 nM
M2
  Ki: > 10000 nM
[5]
  IC50: 4.38 nM
β2 receptors
  Ki: > 10000 nM
β1 receptors
  Ki: 113 nM
[6]
  IC50: 530 nM
α1 receptors
  Ki: 142 nM
5-HT2A receptor
  Ki: 3.11 nM
5-HT1B; [12]
  Ki: 770 nM

## NCCc1c[nH]c2ccc(O)cc12 [Compound 5-HT, 5-Hydroxytryptamine]
α2 receptors
  Ki: > 10000 nM
α1 receptors
  Ki: > 10000 nM
